Test results published in patent US11052092B2, “N-{[2-(piperidin-1-yl)phenyl](phenyl)methyl}-2-(3-oxo-3,4-dihydro-2H-1,4-benzoxazin-7-yl)acetamide derivatives and related compounds as ROR-gamma modulators for treating autoimmune diseases” (Genfit, priority 2017, dated 2021).

Assays:
[1] = target: T1, RORγt ligand-binding domain (RORγt-LBD) (Homo sapiens, UniProt P51449); assay: Time-resolved FRET (TR-FRET) RORγt coactivator assay; conditions: GST-RORγ-LBD, biotinylated RIP140 peptide, 2 hours at room temperature
T1 construct: 20 nM recombinantly expressed RORγ-LBD fused to GST
T1 sequence (P51449 269-508 limits assumed): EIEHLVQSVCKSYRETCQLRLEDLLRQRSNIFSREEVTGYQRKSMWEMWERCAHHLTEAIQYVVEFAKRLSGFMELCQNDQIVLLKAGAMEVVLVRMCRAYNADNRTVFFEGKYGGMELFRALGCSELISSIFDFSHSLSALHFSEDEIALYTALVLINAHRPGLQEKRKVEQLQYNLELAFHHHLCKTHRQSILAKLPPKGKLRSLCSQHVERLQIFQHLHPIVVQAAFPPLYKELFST
Source text: Time-resolved FRET (TR-FRET) RORγt coactivator assay was used to identify RORγ modulator compounds with ligand-dependent coactivator displacement. The assay uses a d2-labeled anti-GST antibody, synthetic N-terminally biotinylated peptide which is derived from nuclear receptor coactivator protein RIP140, and a RORγt ligand-binding domain (RORγt-LBD) that is tagged with glutathione-S-transferase (GST). The influence of compounds on the RORγ-peptide interaction relies on the binding dependent energy transfer from a donor to an acceptor fluorophor attached to the binding partner of interest. […] For reduction of background from compound fluorescence, TR-FRET method makes use of generic fluorophore labels and time resolved detection.
The assays were done in a final volume of 20 μl in a 384 well plate in a CHAPS buffer (2 mM CHAPS; 1 mM DTT, 2 mM EDTA; 0.1% BSA), containing 20 nM recombinantly expressed RORγ-LBD fused to GST, 30 nM N-terminally biotinylated peptide, 1 nM streptavidin-terbium conjugate and 20 nM d2 labeled-anti-GST. Test compounds were diluted using 10 mM stock solution. The range of the final compound concentrations used in this test was from 0.3 nM to 30 μM (logarithmic scale). DMSO content of the samples was kept at 1%. The assay was equilibrated for 2 hours in the dark at room temperature in 384 well plates (Falcon). The signal was detected by an Ultra384 reader (TECAN). […] Compounds that promote coactivator displacement induce a concentration-dependent decrease in time-resolved fluorescent signal. Data were collected and analyzed using GraphPad Prism software (GraphPad Software V5.02, San Diego Calif. USA). IC50 in μM and Emax in % were reported for each compound.

human RORγt = target: T2, human RORγt (Homo sapiens, UniProt P51449); assay: RORE Luciferase/RORγt transactivation assay; type: cell-based; conditions: COS-7 cells transfected with human IL-17 promoter luciferase reporter and RORγt plasmid; 20 h with compound; read-out: IC50, RORγt activity inhibition
T2 construct: the full-length cDNA of human RORγt; expressed in transfected cells; host or cells: COS-7 (monkey kidney)
T2 sequence (P51449 1-497 isoform P51449-2): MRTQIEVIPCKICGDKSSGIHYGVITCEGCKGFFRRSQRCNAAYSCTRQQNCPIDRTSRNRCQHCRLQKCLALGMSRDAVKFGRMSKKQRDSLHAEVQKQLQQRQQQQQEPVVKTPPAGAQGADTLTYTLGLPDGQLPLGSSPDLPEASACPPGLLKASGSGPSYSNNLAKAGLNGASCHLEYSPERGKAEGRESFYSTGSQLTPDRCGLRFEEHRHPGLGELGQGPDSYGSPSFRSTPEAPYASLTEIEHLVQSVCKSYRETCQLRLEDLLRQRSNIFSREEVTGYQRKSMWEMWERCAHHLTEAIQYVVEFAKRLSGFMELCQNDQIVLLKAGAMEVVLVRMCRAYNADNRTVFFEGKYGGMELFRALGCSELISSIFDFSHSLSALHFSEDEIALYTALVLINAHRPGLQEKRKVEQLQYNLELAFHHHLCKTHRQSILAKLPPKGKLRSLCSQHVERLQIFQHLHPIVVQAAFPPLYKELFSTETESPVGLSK
In short: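 Transactivation read-out: luminescence (Steady-Glo, 30 min at room temperature) from COS-7 cells carrying a RORγt expression plasmid plus a 4.3 kb IL-17 promoter luciferase reporter. Compound exposure was in serum-free DMEM with 0.3% DMSO final. Reported values are IC50 (μM) and Emax (%).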

O=C1COc2cc(CC(=O)NC(c3ccccc3)c3ccccc3N3CCOCC3)ccc2N1 (stereo not drawn) [Cpd. 7, N-{[2-(morpholin-4-yl)phenyl](phenyl)methyl}-2-(3-oxo-3,4-dihydro-2H-1,4-benzoxazin-7-yl)acetamide]
IC50 [1]: 100 to 1000 nM | IC50 (human RORγt): > 10000 nM

Cc1ccc(C(NC(=O)Cc2ccc3[nH]c(=O)cc(C)c3c2)c2ccccc2)c(N2CCOCC2)c1 (stereo not drawn) [Cpd. 8, N-{[4-methyl-2-(morpholin-4-yl)phenyl](phenyl)methyl}-2-(4-methyl-2-oxo-1,2-dihydroquinolin-6-yl)acetamide]
IC50 [1]: 100 to 1000 nM

Cc1ccc(C(NC(=O)Cc2ccc3[nH]c(=O)cc(C)c3c2)c2ccccc2)c(C)c1 (stereo not drawn) [Cpd. 9, N-[(2,4-dimethylphenyl)(phenyl)methyl]-2-(4-methyl-2-oxo-1,2-dihydroquinolin-6-yl)acetamide]
IC50 [1]: 10 to 100 nM | IC50 (human RORγt): 1000 to 10000 nM

O=C(Cc1ccc2[nH]c(=O)c(=O)[nH]c2c1)NC(c1ccccc1)c1ccccc1N1CCCCC1 (stereo not drawn) [Cpd. 12, 2-(2,3-dioxo-1,2,3,4-tetrahydroquinoxalin-6-yl)-N-{phenyl[2-(piperidin-1-yl)phenyl]methyl}acetamide]
IC50 [1]: 1000 to 10000 nM

O=C1Cc2cc(CC(=O)NC(c3ccccc3)c3ccccc3N3CCCCC3)ccc2N1 (stereo not drawn) [Cpd. 15, 2-(2-oxo-2,3-dihydro-1H-indol-5-yl)-N-{phenyl[2-(piperidin-1-yl)phenyl]methyl}acetamide]
IC50 [1]: 10 to 100 nM | IC50 (human RORγt): 1000 to 10000 nM

Cc1ccc(C(NC(=O)Cc2ccc3c(c2)CC(=O)N3)c2ccccc2)c(N2CCOCC2)c1 (stereo not drawn) [Cpd. 18, N-{[4-methyl-2-(morpholin-4-yl)phenyl](phenyl)methyl}-2-(2-oxo-2,3-dihydro-1H-indol-5-yl)acetamide]
IC50 [1]: 100 to 1000 nM | IC50 (human RORγt): 1000 to 10000 nM

CC1(C)Oc2cc(CC(=O)NC(c3ccccc3)c3ccccc3N3CCCCC3)ccc2NC1=O (stereo not drawn) [Cpd. 19, 2-(2,2-dimethyl-3-oxo-3,4-dihydro-2H-1,4-benzoxazin-7-yl)-N-{phenyl[2-(piperidin-1-yl)phenyl]methyl}acetamide]
IC50 [1]: 1000 to 10000 nM

O=C(Cc1ccc2c(c1)C(=O)C(=O)N2)NC(c1ccccc1)c1ccccc1N1CCCCC1 (stereo not drawn) [Cpd. 20, 2-(2,3-dioxo-2,3-dihydro-1H-indol-5-yl)-N-{phenyl[2-(piperidin-1-yl)phenyl]methyl}acetamide]
IC50 [1]: 1000 to 10000 nM | IC50 (human RORγt): 1000 to 10000 nM

Cc1ccc(C(NC(=O)Cc2ccc3c(c2)OC(C)(C)C(=O)N3)c2ccccc2)c(N2CCOCC2)c1 (stereo not drawn) [Cpd. 21, 2-(2,2-dimethyl-3-oxo-3,4-dihydro-2H-1,4-benzoxazin-7-yl)-N-{[4-methyl-2-(morpholin-4-yl)phenyl](phenyl)methyl}acetamide]
IC50 [1]: 100 to 1000 nM | IC50 (human RORγt): 100 to 1000 nM

COc1ccc(C(NC(=O)Cc2ccc3c(c2)C(=O)C(=O)N3)c2ccccc2)c(N2CCCCC2)c1 (stereo not drawn) [Cpd. 22, 2-(2,3-dioxo-2,3-dihydro-1H-indol-5-yl)-N-{[4-methoxy-2-(piperidin-1-yl)phenyl](phenyl)methyl}acetamide]
IC50 [1]: 100 to 1000 nM | IC50 (human RORγt): 1000 to 10000 nM

O=C(Cc1ccc2c(c1)CS(=O)(=O)N2)NC(c1ccccc1)c1ccccc1N1CCCCC1 (stereo not drawn) [Cpd. 26, 2-(2,2-dioxo-1,3-dihydro-2,1-benzothiazol-5-yl)-N-{phenyl[2-(piperidin-1-yl)phenyl]methyl}acetamide]
IC50 [1]: 10 to 100 nM | IC50 (human RORγt): 1000 to 10000 nM

COc1ccc(C(NC(=O)Cc2ccc3c(c2)OC(C)(C)C(=O)N3)c2ccc(C)o2)c(N2CCOCC2)c1 (stereo not drawn) [Cpd. 30, 2-(2,2-dimethyl-3-oxo-3,4-dihydro-2H-1,4-benzoxazin-7-yl)-N-{[4-methoxy-2-(morpholin-4-yl)phenyl](5-methylfuran-2-yl)methyl}acetamide]
IC50 [1]: 100 to 1000 nM | IC50 (human RORγt): 1000 to 10000 nM

CCc1ccc(C(NC(=O)Cc2ccc3c(c2)OCC(=O)N3)c2ccc(C)cc2C)o1 (stereo not drawn) [Cpd. 32, N-[(2,4-dimethylphenyl)(5-ethylfuran-2-yl)methyl]-2-(3-oxo-3,4-dihydro-2H-1,4-benzoxazin-7-yl)acetamide]
IC50 [1]: 1000 to 10000 nM | IC50 (human RORγt): 100 to 1000 nM

COc1ccc(C(NC(=O)Cc2ccc3c(c2)OCC(=O)N3)c2ccc(C)o2)c(Br)c1 (stereo not drawn) [Cpd. 34, N-[(2-bromo-4-methoxyphenyl)(5-methylfuran-2-yl)methyl]-2-(3-oxo-3,4-dihydro-2H-1,4-benzoxazin-7-yl)acetamide]
IC50 [1]: 100 to 1000 nM | IC50 (human RORγt): 100 to 1000 nM

Cc1ccc(C(NC(=O)Cc2ccc3c(c2)C(C)(C)C(=O)N3C)c2ccc(C)o2)c(N2CCCCC2)c1 (stereo not drawn) [Cpd. 40, N-{[4-methyl-2-(piperidin-1-yl)phenyl](5-methylfuran-2-yl)methyl}-2-(1,3,3-trimethyl-2-oxo-2,3-dihydro-1H-indol-5-yl)acetamide]
IC50 [1]: 100 to 1000 nM | IC50 (human RORγt): 100 to 1000 nM

Cc1ccc(C(NC(=O)Cc2ccc3c(c2)C(=Cc2c(C)noc2C)C(=O)N3)c2ccc(C)o2)c(N2CCCCC2)c1 (stereo not drawn) [Cpd. 43, 2-{3-[(dimethyl-1,2-oxazol-4-yl)methylidene]-2-oxo-2,3-dihydro-1H-indol-5-yl}-N-{[4-methyl-2-(piperidin-1-yl)phenyl](5-methylfuran-2-yl)methyl}acetamide]
IC50 [1]: 100 to 1000 nM | IC50 (human RORγt): 100 to 1000 nM

Cc1ccc(C(NC(=O)Cc2ccc3c(c2)C(=O)C(=O)N3C)c2ccc(C)o2)c(N2CCCCC2)c1 (stereo not drawn) [Cpd. 45, 2-(1-methyl-2,3-dioxo-2,3-dihydro-1H-indol-5-yl)-N-{[4-methyl-2-(piperidin-1-yl)phenyl](5-methylfuran-2-yl)methyl}acetamide]
IC50 [1]: 100 to 1000 nM | IC50 (human RORγt): 100 to 1000 nM

Cc1ccc(C(NC(=O)Cc2ccc3c(c2)/C(=C\C(C)C)C(=O)N3)c2ccc(C)o2)c(N2CCCCC2)c1 (stereo not drawn) [Cpd. 48, N-{[4-methyl-2-(piperidin-1-yl)phenyl](5-methylfuran-2-yl)methyl}-2-[(3E)-3-(2-methylpropylidene)-2-oxo-2,3-dihydro-1H-indol-5-yl]acetamide]
IC50 [1]: 100 to 1000 nM | IC50 (human RORγt): 100 to 1000 nM | melting point: 91 °C

Cc1ccc(C(NC(=O)Cc2cccc3c2CN(S(C)(=O)=O)C3)c2ccc(C)o2)c(N2CCCCC2)c1 (stereo not drawn) [Cpd. 50, 2-(2-methanesulfonyl-2,3-dihydro-1H-isoindol-4-yl)-N-{[4-methyl-2-(piperidin-1-yl)phenyl](5-methylfuran-2-yl)methyl}acetamide]
IC50 [1]: 1000 to 10000 nM | IC50 (human RORγt): 100 to 1000 nM

Cc1ccc(C(NC(=O)C2(c3ccc4c(c3)CS(=O)(=O)N4)CC2)c2ccc(C)o2)c(C)c1 (stereo not drawn) [Cpd. 63, N-[(2,4-dimethylphenyl)(5-methylfuran-2-yl)methyl]-1-(2,2-dioxo-1,3-dihydro-2,1-benzothiazol-5-yl)cyclopropane-1-carboxamide]
IC50 [1]: < 10 nM | IC50 (human RORγt): 10 to 100 nM

Cc1ccc(C(NC(=O)Cc2ccc3c(ccn3CCC(=O)OC(C)(C)C)c2)c2ccc(C)o2)c(C)c1 (stereo not drawn) [Cpd. 99, tert-butyl 3-[5-({[(2,4-dimethylphenyl)(5-methylfuran-2-yl)methyl]carbamoyl}methyl)-1H-indol-1-yl]propanoate]
IC50 [1]: 10 to 100 nM | IC50 (human RORγt): 100 to 1000 nM

Cc1ccc(C(NC(=O)Cc2ccc3c(ccn3CCC(=O)OC(C)(C)C)c2)c2ccc(C)o2)c(Br)c1 (stereo not drawn) [Cpd. 100, tert-butyl 3-[5-({[(2-bromo-4-methylphenyl)(5-methylfuran-2-yl)methyl]carbamoyl}methyl)-1H-indol-1-yl]propanoate]
IC50 [1]: 100 to 1000 nM | IC50 (human RORγt): 100 to 1000 nM
